{"source": "patent US20230138395A1", "about": "“PHARMACEUTICAL COMPOSITIONS OF A THERAPEUTIC POLYENE MACROLIDE AND METHODS OF THEIR USE” (priority 2020, published 2023)", "key": {"[1]": {"tested_on": "Candida albicans", "assay": "MIC testing (CLSI M27-A3)", "assay_type": "cell-based", "set-up": "MIC: unit not given beside the values"}, "[2]": {"tested_on": "Candida albicans", "assay": "MFC determination", "assay_type": "cell-based"}, "[3]": {"tested_on": "C. glabrata strains", "assay": "MIC testing (CLSI M27-A3)", "assay_type": "cell-based", "set-up": "MIC: unit not given beside the values"}, "[4]": {"tested_on": "C. glabrata strains", "assay": "MFC determination", "assay_type": "cell-based", "set-up": "MFC: unit not given beside the values"}, "[5]": {"tested_on": "C. krusei strains", "assay": "MIC testing (CLSI M27-A3)", "assay_type": "cell-based"}, "[6]": {"tested_on": "C. krusei strains", "assay": "MFC determination", "assay_type": "cell-based", "settings": "C. krusei"}, "[7]": {"tested_on": "C. parapsilosis", "assay": "MIC testing (CLSI M27-A3)", "assay_type": "cell-based", "set-up": "MIC: unit not given beside the values"}, "[8]": {"tested_on": "all Candida strains", "assay": "MIC testing (CLSI M27-A3), summary", "assay_type": "cell-based"}, "[9]": {"tested_on": "all Candida strains", "assay": "MFC determination, summary", "assay_type": "cell-based"}, "[10]": {"tested_on": "Cr. neoformans strains", "assay": "MIC testing (CLSI M27-A3, YNB, 72 h)", "assay_type": "cell-based, Cryptococcus neoformans"}, "[11]": {"tested_on": "Cr. neoformans strains", "assay": "MFC determination", "assay_type": "cell-based, Cryptococcus neoformans", "settings": "Cr. neoformans"}, "[12]": {"tested_on": "individual Aspergillus spp. (Table 12, species not named)", "assay": "MIC testing (CLSI M38-A2), Table 12", "assay_type": "cell-based", "settings": "Aspergillus sp. of Table 12, caspofungin read as MEC"}, "[13]": {"tested_on": "individual Aspergillus spp. (Table 14, species not named)", "assay": "MIC testing (CLSI M38-A2), Table 14", "assay_type": "cell-based", "settings": "Aspergillus sp. of Table 14, caspofungin read as MEC"}, "[14]": {"tested_on": "individual Aspergillus spp. (Table 14, species not named)", "assay": "MFC determination, Table 14", "assay_type": "cell-based", "settings": "Aspergillus sp. of Table 14"}, "[15]": {"tested_on": "individual Aspergillus spp. (Table 15, species not named)", "assay": "MFC determination, Table 15", "assay_type": "cell-based", "settings": "Aspergillus sp. of Table 15"}, "[16]": {"tested_on": "all Aspergillus strains tested", "assay": "MFC determination, summary", "assay_type": "cell-based"}, "[17]": {"tested_on": "Fusarium strains", "assay": "MIC testing (CLSI M38-A2), Table 17", "assay_type": "cell-based, Fusarium spp.", "settings": "Fusarium strains (Table 17)"}, "[18]": {"tested_on": "Fusarium strains (Table 18)", "assay": "MIC testing (CLSI M38-A2), Table 18", "assay_type": "cell-based, Fusarium spp."}, "[19]": {"tested_on": "Fusarium strains (Table 18)", "assay": "MFC determination, Table 18", "assay_type": "cell-based, Fusarium spp."}, "[20]": {"tested_on": "Penicillium strains", "assay": "MIC testing (CLSI M38-A2)", "assay_type": "cell-based, Penicillium spp.", "settings": "Penicillium"}, "[21]": {"tested_on": "Penicillium strains", "assay": "MFC determination", "assay_type": "cell-based, Penicillium spp."}, "[22]": {"tested_on": "A. fumigatus AF91", "assay": "In vitro activity (MIC) against the infecting strain, Example 17", "assay_type": "cell-based, Aspergillus fumigatus", "settings": "Aspergillus fumigatus, read-out: MIC", "description": "Minimum Inhibitory Concentration: MIC testing was performed according to the Clinical and Laboratory Standards Institute (CLSI) M27-A3 and M38-A2 standards for the susceptibility testing of yeasts and filamentous fungi, respectively (Cryptococcus isolates were incubated for 72 h). For yeast strains, the incubation temperature and time were 35° C. and 24-48 h, respectively, and the inoculum size was 0.5-2.5×10^3 CFU/ml. For filamentous strains, the inoculum size was 0.4-5×10^4 CFU/ml, and the incubation time was strain and drug specific. RPMI 1640 was the test medium throughout, with the exception of the use of YNB for Cryptococcus. Inhibition endpoints for compound 1A were recorded at 50% and 100% after both 24 h and 48 h incubation; caspofungin results against Aspergillus strains were read as minimum effective concentrations (MEC), the lowest concentration that leads to small, rounded, compact growth as compared to the confluent growth of the control."}, "[23]": {"tested_on": "C. albicans SC5314", "assay": "In vitro activity (MFC) against the infecting strain, Example 18", "assay_type": "cell-based, Candida albicans", "settings": "Candida albicans, read-out: MFC"}, "[24]": {"tested_on": "Candida albicans SC5314", "assay": "Disseminated candidiasis in immunocompromised murine model (BALB/c mice): tissue fungal burden", "assay_type": "in vivo", "settings": "Experiment I; 4 mg/kg i.v. twice a day, 7 days"}, "[25]": {"tested_on": "Aspergillus fumigatus AF91", "assay": "Disseminated Aspergillosis in immunocompromised murine model (CD-1 mice): tissue fungal burden", "settings": "Experiment I; 7.5 mg/kg i.v., 7 days"}, "[26]": {"settings": "Fluconazole-susceptible C. albicans n = 13, in µg/mL"}}, "note": "“And” between values parts separate entries of the source, which are not always exact repeats. Equal entries are not always repeated."}
{"smiles": "C[C@@H](c1ncncc1F)[C@](O)(Cn1cncn1)c1ccc(F)cc1F", "note": "[Voriconazole, voriconazole]", "values": [{"measurement": "MIC Range", "setting": "[1]; [26]", "value": "<0.06-0.06"}, {"measurement": "MIC50", "setting": "[1]; Fluconazole-susceptible C. albicans n = 13, inhibits 50% of strains", "value": 0.6, "unit": "µg/mL"}, {"measurement": "MIC90", "setting": "[1]; Fluconazole-susceptible C. albicans n = 13, inhibits 90% of strains", "value": 0.06, "unit": "µg/mL"}, {"measurement": "MIC", "setting": "[1]; individual C. albicans strain with elevated MICs to non-polyene comparators (Table 22), listed as Vor, in µg/mL", "value": ">0.06 and 0.5 and 32"}, {"measurement": "MFC Range", "setting": "[2]; [26]", "value": ">32"}, {"measurement": "MFC50", "setting": "[2]; Fluconazole-susceptible C. albicans n = 13, kills 50% of strains", "value": "> 32", "unit": "µg/mL"}, {"measurement": "MFC90", "setting": "[2]; Fluconazole-susceptible C. albicans n = 13, kills 90% of strains", "value": "> 32", "unit": "µg/mL"}, {"measurement": "MFC", "setting": "[2]; individual C. albicans strain with elevated MICs to non-polyene comparators (Table 22), listed as Vor", "value": "16 and >32 (2×)"}, {"measurement": "MIC50", "setting": "[3]; C. glabrata, inhibits 50% of strains", "value": 0.25, "unit": "µg/mL"}, {"measurement": "MIC90", "setting": "[3]; C. glabrata, inhibits 90% of strains", "value": 4, "unit": "µg/mL"}, {"measurement": "MIC", "setting": "[3]; individual C. glabrata strain with elevated MICs to non-polyene comparators (Table 22), listed as Vor", "value": "1 (3×) and >32 and 0.25 and 2"}, {"measurement": "MFC Range", "setting": "[4]; C. glabrata strains, in µg/mL", "value": ">32"}, {"measurement": "MFC50", "setting": "[4]; C. glabrata, kills 50% of strains", "value": "> 32", "unit": "µg/mL"}, {"measurement": "MFC90", "setting": "[4]; C. glabrata, kills 90% of strains", "value": "> 32", "unit": "µg/mL"}, {"measurement": "MFC", "setting": "[4]; individual C. glabrata strain with elevated MICs to non-polyene comparators (Table 22), in µg/mL", "value": ">32"}, {"measurement": "MIC Range", "setting": "[5]; C. krusei strains, in µg/mL", "value": "<0.06-0.5"}, {"measurement": "MIC50", "setting": "[5]; C. krusei, inhibits 50% of strains", "value": 0.125, "unit": "µg/mL"}, {"measurement": "MIC90", "setting": "[5]; C. krusei, inhibits 90% of strains", "value": 0.25, "unit": "µg/mL"}, {"measurement": "MFC50", "setting": "[6]; kills 50% of strains", "value": "> 8", "unit": "µg/mL"}, {"measurement": "MFC90", "setting": "[6]; kills 90% of strains", "value": "> 8", "unit": "µg/mL"}, {"measurement": "MIC50", "setting": "[7]; C. parapsilosis, inhibits 50% of strains", "value": "< 0.06", "unit": "µg/mL"}, {"measurement": "MIC90", "setting": "[7]; C. parapsilosis, inhibits 90% of strains", "value": 0.06, "unit": "µg/mL"}, {"measurement": "MIC", "setting": "[7]; individual C. parapsilosis strain with elevated MICs to non-polyene comparators (Table 22), listed as Vor", "value": "0.06 (2×) and >32"}, {"measurement": "MIC50", "setting": "[8]; inhibits 50% of strains", "value": 0.06, "unit": "µg/mL"}, {"measurement": "MIC90", "setting": "[8]; inhibits 90% of strains", "value": 1, "unit": "µg/mL"}, {"measurement": "MFC50", "setting": "[9]; kills 50% of strains", "value": "> 32", "unit": "µg/mL"}, {"measurement": "MFC90", "setting": "[9]; kills 90% of strains", "value": "> 32", "unit": "µg/mL"}, {"measurement": "MIC Range", "setting": "[10]; Cr. neoformans strains, 72 h, in µg/mL", "value": "<0.06-0.25"}, {"measurement": "MIC50", "setting": "[10]; Cr. neoformans, inhibits 50% of strains", "value": "< 0.06", "unit": "µg/mL"}, {"measurement": "MIC90", "setting": "[10]; Cr. neoformans, inhibits 90% of strains", "value": 0.125, "unit": "µg/mL"}, {"measurement": "MFC50", "setting": "[11]; kills 50% of strains", "value": "> 0.5", "unit": "µg/mL"}, {"measurement": "MFC90", "setting": "[11]; kills 90% of strains", "value": "> 0.5", "unit": "µg/mL"}, {"measurement": "MIC Range", "setting": "[12]; in µg/mL", "value": "0.25-4"}, {"measurement": "MIC50", "setting": "[12]; inhibits 50% of strains", "value": 1, "unit": "µg/mL"}, {"measurement": "MIC90", "setting": "[12]; inhibits 90% of strains", "value": 2, "unit": "µg/mL"}, {"measurement": "MIC Range", "setting": "[13]; in µg/mL", "value": "0.06-8"}, {"measurement": "MIC50", "setting": "[13]; inhibits 50% of strains", "value": 1, "unit": "µg/mL"}, {"measurement": "MIC90", "setting": "[13]; inhibits 90% of strains", "value": 4, "unit": "µg/mL"}, {"measurement": "MFC50", "setting": "[14]; kills 50% of strains", "value": "> 8", "unit": "µg/mL"}, {"measurement": "MFC90", "setting": "[14]; kills 90% of strains", "value": "> 8", "unit": "µg/mL"}, {"measurement": "MFC50", "setting": "[15]; kills 50% of strains", "value": "> 4", "unit": "µg/mL"}, {"measurement": "MFC90", "setting": "[15]; kills 90% of strains", "value": "> 4", "unit": "µg/mL"}, {"measurement": "MFC50", "setting": "[16]; kills 50% of strains", "value": "> 8", "unit": "µg/mL"}, {"measurement": "MFC90", "setting": "[16]; kills 90% of strains", "value": "> 8", "unit": "µg/mL"}, {"measurement": "MIC50", "setting": "[17]; inhibits 50% of strains", "value": 16, "unit": "µg/mL"}, {"measurement": "MIC90", "setting": "[17]; inhibits 90% of strains", "value": "> 32", "unit": "µg/mL"}, {"measurement": "MIC50", "setting": "[18]; inhibits 50% of strains", "value": 16, "unit": "µg/mL"}, {"measurement": "MIC90", "setting": "[18]; inhibits 90% of strains", "value": "> 16", "unit": "µg/mL"}, {"measurement": "MFC50", "setting": "[19]; kills 50% of strains", "value": "> 16", "unit": "µg/mL"}, {"measurement": "MFC90", "setting": "[19]; kills 90% of strains", "value": "> 16", "unit": "µg/mL"}, {"measurement": "MIC50", "setting": "[20]; inhibits 50% of strains", "value": 4, "unit": "µg/mL"}, {"measurement": "MIC90", "setting": "[20]; inhibits 90% of strains", "value": "> 32", "unit": "µg/mL"}, {"measurement": "MFC50", "setting": "[21]; kills 50% of strains", "value": "> 32", "unit": "µg/mL"}, {"measurement": "MFC90", "setting": "[21]; kills 90% of strains", "value": "> 32", "unit": "µg/mL"}, {"measurement": "MIC", "setting": "[22]", "value": 1, "unit": "µg/mL"}, {"measurement": "MFC", "setting": "[23]", "value": "> 32", "unit": "µg/mL"}, {"measurement": "Brain tissue fungal burden, Mean log CFUs ± the standard deviation", "setting": "[24]", "value": "3.42 ± 2.30", "unit": "log CFUs"}, {"measurement": "Kidney tissue fungal burden, Mean log CFUs ± the standard deviation", "setting": "[24]", "value": "3.45 ± 1.15", "unit": "log CFUs"}, {"measurement": "Kidney tissue fungal burden, Mean log CFUs ± the standard deviation", "setting": "[25]", "value": "3.19 ± 0.59", "unit": "log CFUs"}, {"measurement": "Lung tissue fungal burden, Mean log CFUs ± the standard deviation", "setting": "[25]", "value": "3.38 ± 0.45", "unit": "log CFUs"}]}
